Assay results from patent US10849906B2, “Use of Akt2 in diagnosis and treatment of tumor” (priority 2015, dated 2020).

Experiments:
[1] = test system: CCRF-CEM tumor-bearing mice; assay: Glucocorticoid sensitization in CCRF-CEM tumor-bearing nude mice; format: in vivo
Experimental: The overall survival time, tumor size and spleen cell apoptosis of the tumor-bearing mice were measured, and the pathological HE staining was carried out to tumors.
The overall survival, tumor size and spleen size of the tumor-bearing mice were measured, the pathological sections of tumor were for HE and Ki-67 staining, and the pathological sections of spleen were for HE, CD3, and TdT staining.

[2] = test system: Akt/FoxO3a/Bim signaling pathway in CCRF-CEM cells; assay: Western blot of Akt/FoxO3a/Bim signaling pathway proteins in CCRF-CEM cells; format: cell-based, human
Experimental: (§1) The control group was not added with any reagents. All experiments were performed in triplicate.
Protein detection by Western blot: in the examples of the present invention, Akt antibody (rabbit derived), phosphorylated Akt antibody (rabbit derived), FoxO3a antibody (rabbit derived), phosphorylated FoxO3a antibody (rabbit derived) and GAPDH antibody (rabbit derived) and secondary antibodies were all purchased from CST company. The cells were collected in a centrifuge tube and centrifuged at 1000 rpm, the supernatant was discarded and the cells were washed twice with PBS pre-cold at 4° C.; cell lysis buffer (150 mM NaCl, 1% NP-40, 0.1% SDS, 2 μg/ml Aprotinin, 2 μg/ml Leupeptin, 1 mM PMSF, 1.5 mM EDTA, 1 mM sodium vanadate) was added and the cells were lysed on ice for 40 minutes, the cell lysate was centrifuged at 20000 rpm, 4° C. for 15 minutes, and the supernatant was collected; a protein loading buffer for sodium dodecyl sulfate polyacrylamide (SDS-PAGE) gel electrophoresis (1.25 mL 1MTris-HCl (pH6.8), 0.5 g SDS, 25 mg BPB, 2.5 mL glycerol, 5 mL deionized water) was added, followed by boiling for 5 minutes to denature proteins; the loading buffer containing denatured proteins was applied to 10% SDS-PAGE for electrophoresis at 120 V, and then transferred to a PVDF membrane (Sangon Biotech (Shanghai) Co., Ltd.) at 130 V for 1.5 hours; after the membrane transfer was completed, the PVDF membrane was immediately rinsed with a Western washing solution (150 mmol/L NaCl, 50 mmol/L Tris-HCl (pH 7.5)) for 1-2 minutes; added with 5% non-fat milk powder (Shanghai Biotechnology Co., Ltd.), agitated gently and then blocked at room temperature for 60 minutes; a primary antibody diluted appropriately with 5% non-fat milk powder was added, and incubated overnight at room temperature with gentle agitating; the primary antibody was recovered and the membrane was washed three times with the washing solution for 5-10 minutes each; a horseradish peroxidase-labeled secondary antibody diluted appropriately with the Western washing solution was added, and incubated at room temperature for 1 hour with gentle agitating; the secondary antibody was recovered and the membrane was washed three times with the Western washing solution for 5-10 minutes each. An appropriate amount of developing solution (DAB 4 mg, 30% hydrogen peroxide 15 μL, 0.01 M Tris-Cl (pH 7.5) 5 mL) was dropped on the PVDF membrane, the image was detected using a bioluminescence image colorimeter and a gel imaging system (Thermo company), and the quantitative analysis of bands was performed using Image Lab software.
(§2) The cells were cultured in RPMI 1640 complete medium (Gibco company) containing 10% fetal bovine serum (FBS, Gibco company) in an incubator (Thermo company) at 5% CO2 and 37° C. until reaching logarithmic growth phase, then different concentrations of inhibitors and/or dexamethasone/ethanol/DMSO were added to the culture medium, followed by further culturing (for addition of dexamethasone/ethanol/DMSO, for 48 hours, and for addition of inhibitor, for 24 hours), and apoptosis was detected by Annexin V-FITC PI double staining and proteins were detected by Western blot, as described in Example 1.
Methods: CCRF-CEM cells were cultured in RPMI 1640 complete medium (Gibco company) containing 10% fetal bovine serum (FBS, Gibco company) in an incubator (Thermo company) at 5% CO2 and 37° C. until reaching logarithmic growth phase, then DMSO, dexamethasone and different inhibitors (DMSO: 0.1%, dexamethasone: 0.1 μM, inhibitors: 0.8 μM) were added to the culture medium, and further cultured (for addition of dexamethasone or DMSO, for 48 hours, and for addition of inhibitors, for 24 hours), and the proteins were detected by Western blot, as described in Example 1.

CCRF-CEM cells = assay: Apoptosis by Annexin V-FITC PI double staining (flow cytometry), CCRF-CEM; format: cell-based, human
Experimental: as §1
(§3) Apoptosis was detected by Annexin V-FITC PI double staining method (flow cytometry kit (FITC, PI double staining), Sangon Biotech (Shanghai) Co., Ltd.)), and the collected cells were washed once with phosphate buffered saline (PBS) (135 mM NaCl, 2.7 mM KCl, 1.5 mM KH2PO4 and 8 mM K2HPO4, pH 7.2); the 4× binding buffer was diluted to a 1× binding buffer with deionized water, then the cells were resuspended with 195 ul of the 1× binding buffer at a cell density of 2-5×10^5/ml; 5 μl of Annexin V-FITC was added to the 195 μl of the cell resuspension and mixed, and incubated in dark at room temperature for 10 minutes; the cells were washed once with 200 μl of the 1× binding buffer, and then resuspended in 190 μl of the 1× binding buffer; 10 μl of propidium iodide (20 μg/ml) was added. A flow cytometry device (Beckman company) was used for detection, and the rate of apoptosis was analyzed using Summit software.
as §2
(§4) As described in Example 3, the cells were cultured in RPMI 1640 complete medium containing 10% fetal bovine serum under 5% CO2 and 37° C. until reaching logarithmic growth phase, and then dexamethasone and different concentrations of Akt inhibitor were added to the culture medium, followed by further culture (for addition of dexamethasone/DMSO, for 48 hours, and for addition of the inhibitor, for 24 hours), the apoptosis was detected by Annexin V-FITC PI double staining method and proteins were detected by Western blot as described in Example 1 as well as the cell viability was detected by CCK-8 method.

Jurkat cells = assay: Apoptosis by Annexin V-FITC PI double staining, Jurkat; format: cell-based, human; conditions: compared to the only/single dexamethasone group; FIG. 2F, 4J
Experimental: as §3, §2, §4
The transfected cells were selected and passaged for 3 to 5 passages after resuscitation, with Interferin™ as transfection reagent, and the transfection procedure was performed in accordance with the instruction of the transfection reagent. In short, the cells of logarithmic growth phase were plated at 2×10^5/well, the cells were replaced with fresh complete medium (free of antibiotics) during transfection, siRNA was diluted with Opti-MEM and added with an appropriate amount of […]in™ and mixed, incubated at room temperature for 10 minutes prior to being added dropwise to the cells, and the cells were harvested at appropriate time. The cells were transfected with green fluorescein-labeled siRNA (FAM-siRNA) (siRNA at a final concentration of 20 μM, 1.25 μl/well), and the transfection efficiency was observed using a fluorescence microscope 24 hours later. The dexamethasone group was added 24 hours after transfection, followed by culture for further 24 hours, and then the cells were collected for observation; and the equal amount of anhydrous ethanol was added to the control group.

SP2/0 cells = assay: Apoptosis by Annexin V-FITC PI double staining, SP2/0; format: cell-based, mouse; conditions: compared to dexamethasone alone; FIG. 2M
Experimental: as §3, with “software. […]” for “software.”

[3] = mouse, in vivo
Raji cells = assay: Apoptosis by Annexin V-FITC PI double staining, Raji; format: cell-based, human; conditions: compared to dexamethasone alone; FIG. 2K, 2N
Experimental: as §3, with “software. […]” for “software.”

Molt4 cells = assay: Apoptosis by Annexin V-FITC PI double staining, Molt4; format: cell-based, human; conditions: compared to the only dexamethasone group; FIG. 2E
Experimental: as §3, with “software. […]” for “software.”

Daudi cells [4] = assay: Cell viability by CCK-8 and combination index, Daudi; format: cell-based, human; conditions: B lymphoma cells; as shown in Table 1
Experimental: as §4
The inhibitory effect of two drugs (dexamethasone and an inhibitor) alone and in combination on various lymphocyte lines was observed by CCK-8 method (CCK-8 kit), and then the half-inhibitory concentration of each drug was calculated using the median effect equation, and the combination index (CI) of the two drugs used in combination was calculated using CompuSyn software.
(1) the lymphocytes of logarithmic growth phase were taken and made to a cell suspension of 5×10^4/mL, a blank control group (5 wells), a dexamethasone group (3 wells for each concentration, triplicates), a single inhibitor group (3 wells for each concentration, triplicates), a dexamethasone plus inhibitor group (3 wells for each combined concentration, triplicates) were prepared, 180 μL of the suspension was seeded to each well of a 96-well plate, and incubated for 24 hours in an incubator at 5% CO2 and 37° C.
Based on the drug resistance of cells, the ratio of two drugs was fixed. The dexamethasone group was cultured for 48 hours while the inhibitor group was cultured for 24 hours.
(3) 10 μl of CCK-8 was added to each well, and cultured for 2 hours, and the optical density (OD) was measured at 450 nm using an automatic microplate reader, and the proliferation inhibition rate of the drug on cell was calculated.
(4) the proliferation inhibition rate was calculated according to the following equation: cell proliferation inhibition rate=(1-average OD value in the test group/average OD value in the control group)×100%, and the effect of interaction between the two drugs was analyzed by Chou-Talalay combination index method.

[5] = Toxicity in tumor-bearing nude mice (peripheral blood test, organ pathology)
[6] = test system: L-02 human-derived healthy liver cell line
[7] = test system: L-02 human-derived healthy liver cell line; assay: CCK-8 viability of healthy liver cells L-02; conditions: FIG. 6A
Daudi cells [8] = assay: Apoptosis by Annexin V-FITC PI double staining, Daudi; format: cell-based, human; conditions: compared to the dexamethasone group; FIG. 2K, 4L
Experimental: as §3
as §2, with “1. […]” for “1.”

[9] = CCRF-CEM, inhibitors 0.8 μM, FIG. 5A

Compound: CC[n+]1c(/C=C/N(C)c2ccccc2)n(-c2ccccc2)c2ccc(-c3nc4ccccc4s3)cc21.[I-] [Akt IV]
- size of subcutaneous tumor ([1]; Akt inhibitor 1.25 μg/mouse plus dexamethasone 0.1 mg/mouse i.p. once daily 7 days, vs single dexamethasone group, FIG. 3A, 3B): synergized with dexamethasone to reduce the size of subcutaneous tumor
- overall survival of tumor-bearing mice ([1]; Akt inhibitor in combination with dexamethasone vs single dexamethasone group, FIG. 3D): significantly increased
- apoptosis of spleen lymphocytes in the tumor-bearing mice ([1]; Akt inhibitor plus dexamethasone vs single dexamethasone group, FIG. 3E): significantly increased
- expression of pro-apoptosis factor Bim, inhibitor plus dexamethasone ([2]; compared to the only dexamethasone group, FIG. 2B, 2H): up-regulated
- expression of phosphorylated FoxO3a, inhibitor plus dexamethasone ([2]; compared to the only dexamethasone group, FIG. 2B, 2H, 2I): significantly down-regulated
- sensitization effect to glucocorticoids compared with other cell proliferation pathway inhibitors (CCRF-CEM cells; CCRF-CEM, in combination with dexamethasone, FIG. 2L): strongest effect of inducing apoptosis in combination with dexamethasone
- apoptosis rate of CCRF-CEM cells, different concentrations of Akt inhibitor in combination with dexamethasone (CCRF-CEM cells; FIG. 2C): increased along with the increased concentration of the Akt inhibitor
- apoptosis of CCRF-CEM cells induced by dexamethasone, inhibitor plus dexamethasone (CCRF-CEM cells; compared to dexamethasone alone, FIG. 2A: Akt inhibitor 1 μM, dexamethasone 1 μM, LY294002 30 μM, FIG. 2G, 2J, 2K): significantly increased
- apoptosis of Jurkat cells, inhibitor in combination with dexamethasone (Jurkat cells): significantly increased
- apoptosis of SP2/0 cells, inhibitor in combination with dexamethasone (SP2/0 cells): significantly increased
- liver toxicity [3]: obvious liver toxicity
- apoptosis of Raji cells, inhibitor in combination with dexamethasone (Raji cells): significantly increased
- apoptosis rate of Molt4 cells, inhibitor in combination with dexamethasone (Molt4 cells): significantly increased

Compound: O=c1[nH]c2ccccc2n1C1CCN(Cc2ccc(-c3nc4cc5nc[nH]c5cc4nc3-c3ccccc3)cc2)CC1 [Akti-1/2]
- effect of inhibitor in combination with dexamethasone in B lymphoma cells (in words) (Daudi cells [4]): moderate synergistic effect
- expression of p-Akt1 [2, 9]: reduced
- expression of p-Akt2 [2, 9]: reduced
- apoptosis of Jurkat cells, inhibitor in combination with dexamethasone (Jurkat cells): significantly increase
- liver pathology (HE staining) ([5]; 7-day administration, FIG. 8A, 8B): did not cause morphological changes of the liver tissues
- level of TBIL ([5]; compared to the NC group, FIG. 6I): significantly increased
- level of peripheral blood AST ([5]; compared to the normal saline group (NC), FIG. 3F, 6H): significantly increased
- level of peripheral blood ALT ([5]; compared to the normal saline group (NC), i.p. 7 days, FIG. 3F, 6G): significantly increased
- recovery of liver cell activity [6]: gradually recovered after 24 hours of administration
- damage to liver cells ([7]; DEX 0.1 μM, inhibitors 0.8 μM): certain damage
- liver cell activity ([7]; after 12 hours of administration): 50.5%
- apoptosis of Daudi cells, inhibitor in combination with dexamethasone (Daudi cells [8]): significantly increase
